ChEMBL document CHEMBL5352460, “Antibacterial activity evaluation of pleuromutilin derivatives with 4(3H)-quinazolinone scaffold against methicillin-resistant Staphylococcusaureus” (Eur J Med Chem, 2023)
In brackets after ≈: the same amount, converted by molar mass.

Experiments:
Staphylococcus aureus [1] = test: microbe, parasite or virus in culture; type: functional; settings: time 20 hrs
[2] = Antibacterial activity against Salmonella pullorum assessed as inhibition of bacterial growth incubated for 20 hrs by absorbance based analysis; type: functional, Salmonella enterica subsp. enterica serovar Pullorum; settings: Salmonella enterica
Escherichia coli = test: microbe, parasite or virus in culture; type: functional; settings: ATCC25922, time 20 hrs
Staphylococcus aureus [3] = test: microbe, parasite or virus in culture; type: functional; settings: ATCC25923, time 20 hrs
Staphylococcus aureus [4] = test: microbe, parasite or virus in culture; type: functional; settings: ATCC29213, time 20 hrs
[5] = test system: Staphylococcus epidermidis; test: Antibacterial activity against methicillin-resistant Staphylococcus epidermidis assessed as inhibition of bacterial growth incubated for 20 hrs by absorbance based analysis; type: functional
[6] = Metabolic stability in rat liver microsomes assessed as intrinsic clearance incubated for 45 mins in the presence of NADPH by LC/MS analysis; type: ADME, Microsome; settings: read-out: CLH
[7] = Metabolic stability in rat liver microsomes assessed as half-life incubated for 45 mins in the presence of NADPH by LC/MS analysis; type: ADME, Microsome
[8] = Metabolic stability in rat liver microsomes assessed as parent compound remaining incubated for 45 mins in the presence of NADPH by LC/MS analysis; type: ADME, Microsome; settings: read-out: Stability

microsomal CLint [6] [µL/min/mg] | half-life [7] [min] | remaining at 0.75 h [8] [%] | Compound | MIC (Staphylococcus aureus [1]) [µg/mL] | MIC [2] [µg/mL] | MIC (Escherichia coli) [µg/mL] | MIC (Staphylococcus aureus [3]) [µg/mL] | MIC (Staphylococcus aureus [4]) [µg/mL] | MIC [5] [µg/mL]
 |  |  | C=C[C@]1(C)C[C@@H](OC(=O)CSc2nc3cccc(Br)c3c(=O)n2-c2ccccc2)[C@]2(C)[C@H](C)CC[C@]3(CCC(=O)[C@H]32)[C@@H](C)[C@@H]1O | > 64 | > 64 | > 64 | > 64 | > 64 | > 64
 |  |  | C=C[C@]1(C)C[C@@H](OC(=O)CN2CCN(Cc3nc4ccccc4c(=O)[nH]3)CC2)[C@]2(C)[C@H](C)CC[C@]3(CCC(=O)[C@H]32)[C@@H](C)[C@@H]1O | 2 (≈ 3.31 µM) | > 64 | > 64 | 1 (≈ 1.65 µM) | 1 (≈ 1.65 µM) | 2 (≈ 3.31 µM)
 |  |  | C=C[C@]1(C)C[C@@H](OC(=O)CSc2nc3sccc3c(=O)[nH]2)[C@]2(C)[C@H](C)CC[C@]3(CCC(=O)[C@H]32)[C@@H](C)[C@@H]1O | 0.25 (≈ 0.459 µM) | > 64 | 64 (≈ 117 µM) | 0.25 (≈ 0.459 µM) | 0.25 (≈ 0.459 µM) | 1 (≈ 1.84 µM)
 |  |  | C=C[C@]1(C)C[C@@H](OC(=O)CN2CCN(C(=O)c3nc4ccccc4c(=O)[nH]3)CC2)[C@]2(C)[C@H](C)CC[C@]3(CCC(=O)[C@H]32)[C@@H](C)[C@@H]1O | 0.5 (≈ 0.808 µM) | > 64 | > 64 | 1 (≈ 1.62 µM) | 0.5 (≈ 0.808 µM) | 2 (≈ 3.23 µM)
 |  |  | C=C[C@]1(C)C[C@@H](OC(=O)CSc2nc3cc(F)ccc3c(=O)[nH]2)[C@]2(C)[C@H](C)CC[C@]3(CCC(=O)[C@H]32)[C@@H](C)[C@@H]1O | 0.5 (≈ 0.898 µM) | > 64 | > 64 | 0.5 (≈ 0.898 µM) | 0.25 (≈ 0.449 µM) | 4 (≈ 7.19 µM)
 |  |  | C=C[C@]1(C)C[C@@H](OC(=O)CSc2nc3cccc(F)c3c(=O)[nH]2)[C@]2(C)[C@H](C)CC[C@]3(CCC(=O)[C@H]32)[C@@H](C)[C@@H]1O | 0.25 (≈ 0.449 µM) | > 64 | > 64 | 0.25 (≈ 0.449 µM) | 0.25 (≈ 0.449 µM) | 2 (≈ 3.59 µM)
 |  |  | C=C[C@]1(C)C[C@@H](OC(=O)CSc2nc3c(Cl)cccc3c(=O)[nH]2)[C@]2(C)[C@H](C)CC[C@]3(CCC(=O)[C@H]32)[C@@H](C)[C@@H]1O | 0.125 (≈ 0.218 µM) | > 64 | > 64 | 0.125 (≈ 0.218 µM) | 0.125 (≈ 0.218 µM) | 1 (≈ 1.74 µM)
 |  |  | C=C[C@]1(C)C[C@@H](OC(=O)CSc2nc3cc(Br)ccc3c(=O)[nH]2)[C@]2(C)[C@H](C)CC[C@]3(CCC(=O)[C@H]32)[C@@H](C)[C@@H]1O | 0.5 (≈ 0.81 µM) | > 64 | > 64 | 0.25 (≈ 0.405 µM) | 0.25 (≈ 0.405 µM) | 4 (≈ 6.48 µM)
 |  |  | C=C[C@]1(C)C[C@@H](OC(=O)CSc2nc3ccc(Br)cc3c(=O)[nH]2)[C@]2(C)[C@H](C)CC[C@]3(CCC(=O)[C@H]32)[C@@H](C)[C@@H]1O | 0.25 (≈ 0.405 µM) | > 64 | > 64 | 0.25 (≈ 0.405 µM) | 0.25 (≈ 0.405 µM) | 2 (≈ 3.24 µM)
 |  |  | C=C[C@]1(C)C[C@@H](OC(=O)CSc2nc3c(Br)cccc3c(=O)[nH]2)[C@]2(C)[C@H](C)CC[C@]3(CCC(=O)[C@H]32)[C@@H](C)[C@@H]1O | 0.25 (≈ 0.405 µM) | > 64 | > 64 | 0.25 (≈ 0.405 µM) | 0.5 (≈ 0.81 µM) | 2 (≈ 3.24 µM)
 |  |  | C=C[C@]1(C)C[C@@H](OC(=O)CSc2nc3ccc(F)cc3c(=O)[nH]2)[C@]2(C)[C@H](C)CC[C@]3(CCC(=O)[C@H]32)[C@@H](C)[C@@H]1O | 0.5 (≈ 0.898 µM) | > 64 | > 64 | 0.25 (≈ 0.449 µM) | 0.25 (≈ 0.449 µM) | 2 (≈ 3.59 µM)
 |  |  | C=C[C@]1(C)C[C@@H](OC(=O)CSc2nc3ccc(OC)cc3c(=O)[nH]2)[C@]2(C)[C@H](C)CC[C@]3(CCC(=O)[C@H]32)[C@@H](C)[C@@H]1O | 0.25 (≈ 0.44 µM) | > 64 | > 64 | 0.25 (≈ 0.44 µM) | 0.125 (≈ 0.22 µM) | 4 (≈ 7.03 µM)
88.9 | 27.9 | 33.5 | O=C(c1ccc(F)cc1)C1CCN(CCn2c(=O)[nH]c3ccccc3c2=O)CC1 [KETANSERIN] |  |  |  |  |  | 
 |  |  | C=C[C@]1(C)C[C@@H](OC(=O)CSc2nc3ccc(C)cc3c(=O)[nH]2)[C@]2(C)[C@H](C)CC[C@]3(CCC(=O)[C@H]32)[C@@H](C)[C@@H]1O | 0.5 (≈ 0.905 µM) | > 64 | > 64 | 0.5 (≈ 0.905 µM) | 0.25 (≈ 0.452 µM) | 2 (≈ 3.62 µM)
 |  |  | C=C[C@]1(C)C[C@@H](OC(=O)CSc2nc3ccccc3c(=O)n2-c2ccccc2)[C@]2(C)[C@H](C)CC[C@]3(CCC(=O)[C@H]32)[C@@H](C)[C@@H]1O | 32 (≈ 52 µM) | > 64 | > 64 | 32 (≈ 52 µM) | 32 (≈ 52 µM) | 64 (≈ 104 µM)
